# Data: paper PMC11373624, “Development and preclinical characterization of a novel radiotheranostic EphA2-targeting bicyclic peptide” (Theranostics, 2024)
# Numbered stars: 1 amine (or outer) side, 2 acyl side, 3 side chain; on linkers, the order of the positions; unused ones are H or OH. Bridge positions count the residues as written; N and C are the ends. Square brackets hold non-standard residues; d marks the D form. Peptide text beside a SMILES is read from it. * marks the point of attachment. DOTA = O=C(O)CN1CCN(CC(=O)O)CCN(CC(=O)*)CCN(CC(=O)O)CC1; TATA = O=C(CC[*:1])N1CN(C(=O)CC[*:2])CN(C(=O)CC[*:3])C1; Hyp = O=C(O)[C@@H]1C[C@@H](O)CN1; hArg = N=C(N)NCCCC[C@H](N)C(=O)O; Cba = N[C@@H](CC1CCC1)C(=O)O; βAla = NCCC(=O)O; Sar = CNCC(=O)O
# Assays:
# [1] = molecular target: T1, Human EphA2 (Homo sapiens, UniProt P29317); assay: SPR binding to human EphA2
# T1 construct: Human EphA2 (residues 27-529) was cloned into pEXPR-IBA44; made in house; host or cells: HEK293 f/s cells
# T1 sequence (P29317 27-529): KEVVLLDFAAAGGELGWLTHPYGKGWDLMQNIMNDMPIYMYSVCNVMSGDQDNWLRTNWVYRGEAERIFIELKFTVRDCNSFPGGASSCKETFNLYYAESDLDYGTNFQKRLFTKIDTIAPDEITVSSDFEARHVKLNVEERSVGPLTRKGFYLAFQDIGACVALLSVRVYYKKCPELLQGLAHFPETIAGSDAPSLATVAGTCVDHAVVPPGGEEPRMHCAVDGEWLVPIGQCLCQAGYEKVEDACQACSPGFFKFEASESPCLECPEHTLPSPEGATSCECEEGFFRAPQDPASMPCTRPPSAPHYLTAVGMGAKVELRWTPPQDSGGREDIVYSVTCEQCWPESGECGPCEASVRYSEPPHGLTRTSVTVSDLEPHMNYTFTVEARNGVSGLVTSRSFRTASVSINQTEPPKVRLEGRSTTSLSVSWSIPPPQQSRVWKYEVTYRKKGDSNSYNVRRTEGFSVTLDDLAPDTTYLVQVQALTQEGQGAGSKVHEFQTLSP
# Description: Human EphA2 (residues 27-529) was cloned into pEXPR-IBA44 between the 5' NheI and 3' BsaI sites to make constructs expressing a BM40 signal sequence and C-terminal 6xHIS tag. For the expression and purification of the protein, HEK293 f/s cells at 1 x 10^6/mL in freestyle media (Thermo Fisher) were transfected with 1 µg DNA per million cells by PEI either 2:1 or 3:1 PEI:DNA ratio. On day 2 valproic acid was added to a 2.2 mM concentration. The supernatant was harvested 5 days post transfection and loaded on a 1 ml Ni-NTA agarose resin (Thermo Fisher) (wash buffer: 20 mM HEPES pH 7.6, 0.5 M NaCl, 5 mM imidazole, 0.01% Tween-20 buffer; elution buffer: 20 mM HEPES pH 7.6, 0.5 M NaCl, 300 mM imidazole, 0.01% Tween-20). The protein was concentrated to a volume of 2 mL, loaded onto an S-200 Superdex column (GE Healthcare) and eluted with 20 mM HEPES pH 7.6, 150 mM NaCl, 0.01% Tween-20 at a flow rate of 1 mL/min. Fractions were collected and those containing human EphA2 protein were concentrated for further use.
# (§1) SPR experiments were performed on a Biacore 8K+ (Cytiva Life Sciences, USA) instrument, with methods matched for both human and mouse EphA2 protein. Protein was captured on to a Cytiva NTA sensor chip (Cytiva Life Sciences), via the expressed His-tag; this was followed by primary amine coupling chemistry to covalently immobilize the protein to the chip at 25°C. Initially the surface was injected with 0.5 mM NiCl2 for 2 minutes, followed by activation of the carboxymethyl dextran surface for 7 minutes using an injection of a 1:1 ratio of 0.4 M 1-ethyl-3-(3-dimethylaminopropyl) carbodiimide hydrochloride (EDC)/0.1 M N-hydroxy succinimide (NHS) at a flow rate of 10 µL/min.
# Human EphA2 protein was captured to the Ni-NTA surface to a level of 200-300 RU and Mouse EphA2 to 500-800 RU; the residual activated groups were then blocked with a 7 minute injection of 1 M ethanolamine (pH 8.5):HBS-N (1:1). Finally, the Ni-NTA surface was chelated with a 1-minute injection of 350 mM EDTA.
# Peptide was prepared in PBS/0.05% Tween 20 with a final DMSO concentration of 0.5%. The top peptide concentration was 100 or 500 nM and 5 further 3-fold dilutions. The peptide was titrated over the chip using single cycle kinetics at 25°C at a flow rate of 75 µL/min with 60 second association and 4000 second dissociation. All data were double referenced for blank injections and reference surface using standard processing procedures. Data was characterized with a 1:1 kinetic binding model to determine kinetic rate constants ka (M^-1s^-1) and kd (s^-1) and equilibrium dissociation constant KD (nM). All data processing was performed using Cytiva Insight Evaluation (Cytiva Life Sciences, USA).
# [2] = molecular target: Human EphA4 (Homo sapiens, UniProt P54764); assay: SPR homologue panel, EphA4; details: human EphA4, n=1; read-out: KD, no binding up to
# Chain of Human EphA4 (P54764 20-986): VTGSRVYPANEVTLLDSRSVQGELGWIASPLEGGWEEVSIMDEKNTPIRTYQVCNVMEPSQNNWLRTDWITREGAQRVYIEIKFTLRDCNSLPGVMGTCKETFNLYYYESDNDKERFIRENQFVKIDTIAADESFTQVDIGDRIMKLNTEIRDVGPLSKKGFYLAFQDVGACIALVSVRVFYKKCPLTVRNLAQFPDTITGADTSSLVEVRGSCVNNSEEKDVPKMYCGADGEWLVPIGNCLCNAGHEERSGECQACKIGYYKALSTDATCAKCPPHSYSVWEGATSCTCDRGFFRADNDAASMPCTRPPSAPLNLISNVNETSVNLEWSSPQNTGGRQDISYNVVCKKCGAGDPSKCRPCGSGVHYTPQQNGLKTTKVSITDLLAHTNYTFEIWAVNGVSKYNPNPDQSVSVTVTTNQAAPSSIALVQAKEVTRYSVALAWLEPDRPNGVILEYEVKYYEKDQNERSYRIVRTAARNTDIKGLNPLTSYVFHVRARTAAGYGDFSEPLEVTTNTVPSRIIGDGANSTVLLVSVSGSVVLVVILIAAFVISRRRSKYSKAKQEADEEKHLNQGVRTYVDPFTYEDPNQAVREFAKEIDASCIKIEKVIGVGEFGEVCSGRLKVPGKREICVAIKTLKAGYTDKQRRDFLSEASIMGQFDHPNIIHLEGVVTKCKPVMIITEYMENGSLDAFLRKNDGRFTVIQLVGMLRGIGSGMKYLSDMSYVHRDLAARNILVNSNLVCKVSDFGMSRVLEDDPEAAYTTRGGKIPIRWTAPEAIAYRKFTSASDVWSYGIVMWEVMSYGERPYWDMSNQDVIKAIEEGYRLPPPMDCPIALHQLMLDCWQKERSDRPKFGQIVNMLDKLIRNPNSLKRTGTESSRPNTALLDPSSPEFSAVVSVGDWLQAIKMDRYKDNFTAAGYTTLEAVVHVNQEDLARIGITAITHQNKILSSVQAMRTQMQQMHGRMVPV
# [3] = in vivo; details: male, CD-1 (ICR), mouse, iv, 1 mg/kg
# Description: (§4) In vivo pharmacokinetic studies were conducted in male CD-1 (ICR) mice, 7-9 weeks of age. […] Serial venous blood samples were taken at 5 min, 15 min, 30 min, 45 min, 1 h, 2 h and 4 h post injection. Samples were immediately transferred into low-binding microcentrifuge tubes containing 2 μL K2-EDTA (0.5 M) as anti-coagulant and kept on ice until processed by centrifugation at 4°C, 3200 g for 10 min. The resulting plasma was transferred into low-binding tubes and the protein precipitated by addition of methanol containing 0.5% Triton X-100 and internal standards (100 ng/mL each of labetalol, tolbutamide, verapamil, dexamethasone, glyburide and celecoxib). Samples were centrifuged at 4°C, 12000 g for 15 min and the supernatant removed, frozen over dry ice and stored at -70°C until LC-MS/MS analysis (Supplementary Materials - Methods). A calibration curve and quality control samples were prepared in the same matrix. Pharmacokinetic parameters were derived from noncompartmental analysis using the intravenous-noncompartmental model 201 (IV bolus input) in Phoenix WinNonlin version 8.3.5 (Certara, USA).
# [4] = molecular target: T2, Human EphA3 (Homo sapiens, UniProt P29320); assay: SPR homologue panel, EphA3; details: human EphA3, n=1; read-out: KD, no binding up to
# T2 construct: purchased R&D Systems 644-A3
# T2 sequence (P29320 with tags, fused parts or gaps limits assumed): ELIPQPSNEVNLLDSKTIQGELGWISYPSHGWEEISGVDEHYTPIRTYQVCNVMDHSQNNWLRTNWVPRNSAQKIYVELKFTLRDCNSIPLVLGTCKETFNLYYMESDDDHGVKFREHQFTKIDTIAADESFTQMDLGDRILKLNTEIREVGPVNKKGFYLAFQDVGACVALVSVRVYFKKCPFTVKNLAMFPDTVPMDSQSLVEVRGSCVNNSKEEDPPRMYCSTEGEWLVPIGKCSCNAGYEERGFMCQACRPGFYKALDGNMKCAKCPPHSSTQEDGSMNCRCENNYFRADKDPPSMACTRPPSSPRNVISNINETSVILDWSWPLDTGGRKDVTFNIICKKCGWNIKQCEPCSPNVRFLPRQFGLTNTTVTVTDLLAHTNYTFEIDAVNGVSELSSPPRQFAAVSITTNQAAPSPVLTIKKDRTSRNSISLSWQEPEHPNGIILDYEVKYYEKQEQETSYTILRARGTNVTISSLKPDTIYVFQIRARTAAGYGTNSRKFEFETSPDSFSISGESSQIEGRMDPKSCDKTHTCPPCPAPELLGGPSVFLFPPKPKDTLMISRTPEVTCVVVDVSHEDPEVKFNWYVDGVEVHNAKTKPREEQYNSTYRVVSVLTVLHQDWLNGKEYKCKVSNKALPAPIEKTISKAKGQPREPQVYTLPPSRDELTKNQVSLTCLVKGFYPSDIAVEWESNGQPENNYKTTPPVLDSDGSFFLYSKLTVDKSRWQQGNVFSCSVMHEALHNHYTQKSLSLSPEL
# Description: (§2) The commercial source details of the recombinant proteins used in SPR were as follows: Human proteins: EphA1 (15789-H02H, Sino Biological), EphA3 (644-A3, R&D Systems), EphA6 (5606-A6, R&D Systems), EphA7 (6756-A7, R&D Systems). Mouse proteins: Mouse EphA2 was purchased from R&D Systems (Product number 639-A2). Mouse EphA2-Fc was resuspended as per manufacturer's recommendations and material was passed through a SuperdexS200 column to remove aggregates.
# as §1
# (§3) Peptide was prepared in PBS/0.05% Tween 20 with a final DMSO concentration of 0.5%. The top peptide concentration was 100 or 500 nM and 5 further 3-fold dilutions. […]
# [5] = male, CD-1 (ICR), mouse, in vivo, iv, 1 mg/kg
# Description: as §4
# [6] = molecular target: T3, Human EphA1 (Homo sapiens, UniProt P21709); assay: SPR homologue panel, EphA1; details: human EphA1, n=1; read-out: KD, no binding up to
# T3 construct: purchased Sino Biological 15789-H02H
# T3 sequence (P21709 26-547 limits assumed): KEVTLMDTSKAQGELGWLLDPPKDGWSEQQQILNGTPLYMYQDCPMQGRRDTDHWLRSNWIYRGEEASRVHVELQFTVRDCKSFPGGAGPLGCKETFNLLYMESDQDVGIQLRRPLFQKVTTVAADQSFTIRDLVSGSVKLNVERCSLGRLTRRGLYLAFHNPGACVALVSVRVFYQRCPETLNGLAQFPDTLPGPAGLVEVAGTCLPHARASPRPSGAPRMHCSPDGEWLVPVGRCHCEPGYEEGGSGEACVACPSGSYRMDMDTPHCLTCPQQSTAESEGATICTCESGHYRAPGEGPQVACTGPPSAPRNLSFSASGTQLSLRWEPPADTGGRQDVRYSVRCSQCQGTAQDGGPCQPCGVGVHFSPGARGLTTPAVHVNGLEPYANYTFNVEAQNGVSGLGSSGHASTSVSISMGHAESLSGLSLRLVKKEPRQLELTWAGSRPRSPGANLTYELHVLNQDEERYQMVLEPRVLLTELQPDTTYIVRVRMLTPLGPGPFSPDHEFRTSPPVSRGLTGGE
# Description: as §2, §1, §3
compound,measurement,setting,value
"CC(C)C[C@@H]1NC(=O)[C@@H]2CSCCC(=O)N3CN(CN(C3)C(=O)CCSC[C@H](NC(=O)[C@H](CC(=O)O)NC(=O)[C@H](CCCCNC(=N)N)NC(=O)[C@H](C)NC(=O)CN(C)C(=O)CN(C)C(=O)CN(C)C(=O)CN(C)C(=O)CN(C)C(=O)CN(C)C(=O)CN(C)C(=O)CN(C)C(=O)CN(C)C(=O)CN(C)C(=O)CCNC(=O)CN3CCN(CC(=O)O)CCN(CC(=O)O)CCN(CC(=O)O)CC3)C(=O)N3C[C@H](O)C[C@H]3C(=O)N[C@@H](CC3CCC3)C(=O)N[C@@H](C(C)C)C(=O)N[C@@H](CC(N)=O)C(=O)N3CCC[C@H]3C(=O)N[C@@H](CC(C)C)C(=O)N2)C(=O)CCSC[C@@H](C(N)=O)NC(=O)[C@H](CCCCNC(=N)N)NC(=O)[C@H](Cc2c[nH]c3ccccc23)NC(=O)[C@@H](CC(=O)O)NC(=O)[C@@H]2CCCN2C(=O)[C@H](Cc2c[nH]cn2)NC1=O [BCY18469, [-DOTA]-[B-Ala]-[Sar10]-Ala-[HArg]-Asp-Cys-[HyP]-[Cba]-Val-Asn-Pro-Leu-Cys-Leu-His-Pro-[dAsp]-Trp-[HArg]-Cys-CONH2] ({DOTA-βAla}-[Sar][Sar][Sar][Sar][Sar][Sar][Sar][Sar][Sar][Sar]A[hArg]DC[Hyp][Cba]VNPLCLHP[dD]W[hArg]C-NH2; linker 14-21-28 via TATA)",Kd,"[1]; human EphA2, 25°C, read-out: KD (SPR)",0.00193 ± 0.00035 µM
same,kon,"[1]; human EphA2, n=2, read-out: ka",1.82e+06 M⁻¹ s⁻¹
same,Kd,[2],> 5 µM
same,AUC(0-inf),[3],0.701 µg·h/mL
same,AUC(0-t),[3],0.7 µg·h/mL
same,Cmax,[3],3.32 µg/mL
same,Vd,[3],0.39 L/kg
same,half-life,[3],14.4 min
same,clearance,[3]; CLp,1.43 L/h/kg
same,Kd,[4],> 5 µM
same,CLp,[5],1.44 L/h/kg
same,Kd,[6],> 5 µM
